According to ChEMBL document CHEMBL1157959, “Pimarane diterpene and cytochalasin derivatives from the endophytic fungus Eutypella scoparia PSU-D44” (2006):
In brackets after ≈: the same amount, converted by molar mass.

Experiments:
[1] = system: Staphylococcus aureus; assay: Antimicrobial activity against Staphylococcus aureus ATCC 25923; type: functional
[2] = system: Nannizzia gypsea; assay: Antimicrobial activity against Microsporum gypseum SH-MU-4; type: functional

C=C[C@]1(C)C=C2C(=O)[C@]3(O)OC[C@@]4(CCCC(C)(C)[C@@]43O)[C@@]2(O)[C@H](O)C1 [DIAPORTHEIN B]
MIC [1]: 87.8 µM (≈ 32 µg/mL)

COc1ccc(C[C@@H]2NC(=O)[C@@]34OC(=O)O/C=C/[C@@](C)(O)C(=O)[C@@H](C)C/C=C/[C@H]3[C@H](O)[C@](C)(O)[C@@H](C)[C@@H]24)cc1 [SCOPARASIN B]
MIC [2]: 30.3 µM (≈ 16.5 µg/mL)
